Test system: A498 complex spheroids with HUVEC/MSC, growth
Assay: Anticancer human tumor A498 cell line growth inhibition [AhR];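 note: seven day exposure starting three days after spheroid seeding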;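 for viability, T/C: luminescence signal used as a surrogate for viable cells; luminescence viability scaled so 100% equals DMSO vehicle wells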
Conditions: for IC50: curve of first compound; for viability, T/C: stronger effect = lower value
How it was run: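 Complex tumor spheroids co-cultured with HUVEC and human MSC stroma; AhR antagonists tested in combination with standard-of-care and investigational agents. Top concentration at or near clinical Cmax (else 10 microM), half-log dilutions; growth expressed as percent test/control.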

CC(C)c1c(-c2ccccc2)nc2c(C#N)c[nH]n2c1=O + Cc1cncc(-c2nc(NCCc3c[nH]c4ccccc34)c3ncn(C(C)C)c3n2)c1
IC50 (second compound 0.1 µM): > 10 µM
IC50 (second compound 0.316 µM): > 10 µM
IC50 (second compound 1 µM): > 10 µM
IC50 (second compound 3.16 µM): > 10 µM
IC50 (second compound 10 µM): < 0.0316 µM
viability, T/C (second compound 0.1 µM, first compound 0.0316 µM): 89.4%
viability, T/C (second compound 0.1 µM, first compound 0.1 µM): 92.7%
viability, T/C (second compound 0.1 µM, first compound 0.316 µM): 98.5%
viability, T/C (second compound 0.1 µM, first compound 1 µM): 104%
viability, T/C (second compound 0.1 µM, first compound 3.16 µM): 100%
viability, T/C (second compound 0.1 µM, first compound 10 µM): 94.8%
viability, T/C (second compound 0.316 µM, first compound 0.0316 µM): 103%
viability, T/C (second compound 0.316 µM, first compound 0.1 µM): 104%
viability, T/C (second compound 0.316 µM, first compound 0.316 µM): 95.6%
viability, T/C (second compound 0.316 µM, first compound 1 µM): 91%
viability, T/C (second compound 0.316 µM, first compound 3.16 µM): 96.9%
viability, T/C (second compound 0.316 µM, first compound 10 µM): 98.5%
viability, T/C (second compound 1 µM, first compound 0.0316 µM): 92.6%
viability, T/C (second compound 1 µM, first compound 0.1 µM): 95.8%
viability, T/C (second compound 1 µM, first compound 0.316 µM): 95.2%
viability, T/C (second compound 1 µM, first compound 1 µM): 88.8%
viability, T/C (second compound 1 µM, first compound 3.16 µM): 91.6%
viability, T/C (second compound 1 µM, first compound 10 µM): 91.2%
viability, T/C (second compound 3.16 µM, first compound 0.0316 µM): 50.7%
viability, T/C (second compound 3.16 µM, first compound 0.1 µM): 49.1%
viability, T/C (second compound 3.16 µM, first compound 0.316 µM): 52.8%
viability, T/C (second compound 3.16 µM, first compound 1 µM): 54.9%
viability, T/C (second compound 3.16 µM, first compound 3.16 µM): 49.2%
viability, T/C (second compound 3.16 µM, first compound 10 µM): 52.7%
viability, T/C (second compound 10 µM, first compound 0.0316 µM): 3%
viability, T/C (second compound 10 µM, first compound 0.1 µM): 4.01%
viability, T/C (second compound 10 µM, first compound 0.316 µM): 4.28%
viability, T/C (second compound 10 µM, first compound 1 µM): 3.84%
viability, T/C (second compound 10 µM, first compound 3.16 µM): 3.64%
viability, T/C (second compound 10 µM, first compound 10 µM): 4.87%

Reference: PubChem BioAssay AID1919007 (Molecular Pharmacology Branch, DTP, NCI, 2023)
